B1: pure β-chain: pure β-chain of hCG (protein, UniProt P0DN86 21-165, looked up)
Choriogonadotropin subunit …: SKEPLRPRCRPINATLAVEKEGCPVCITVNTTICAGYCPTMTRVLQGVLPALPQVVCNYRDVRFESIRLPGCPRGVNPVVSYAVALSCQCALCRRSTTDCGGPKDHPLTCDDPRFQDSSSSKAPPPSLPSPSRLPGPSDTPILPQ
B2: partially purified β-hCG: native partially purified whole β-chain of hCG (protein, UniProt P0DN86 21-165, looked up)
Choriogonadotropin subunit …: B1 Choriogonadotropin subunit …
B3: recombinant β-hCG (purified): purified recombinant β-hCG (protein, UniProt P0DN86 21-165, looked up)
Choriogonadotropin subunit …: B1 Choriogonadotropin subunit …

Legend:
KS Y-1 or KS-SLK cells = assay: KS clonogenic assay in methylcellulose; assay type: cell-based, human
Protocol: Briefly, the KS Y-1 cells were obtained from mononuclear cells isolated from pleural effusion of an AIDS patient with KS involving the lungs. After the depletion of T lymphocytes, monocytes/macrophages and fibroblasts by the cytotoxicity method, using monoclonal antibodies against CD2, CD3, CD4, CD8, CD10 and CD14 membrane antigens and baby rabbit complement, the cells were cultured in the absence of exogenous growth factors to select for transformed cells.

KS Y-1 induced tumors = assay: KS Y-1 tumors induced in immunodeficient mice; details: compared to β-hCG peptides 45-57 and 109-119
KS tumors and cells = assay: Overall anti-KS activity of hCG preparations and peptides in vitro and in vivo; details: for anti-KS effects: in vitro and in vivo animal model data
HIV = HIV assays (anti-viral effects)

| Molecule | inhibition in clonogenic assays (KS Y-1 or KS-SLK cells) | anti-KS activity of other peptides (KS Y-1 induced tumors) | further results |
| --- | --- | --- | --- |
| α-hCG peptide 88-92: α-hCG peptide of amino acids 88-92 (YYHKS; UniProt P01215 112-116, looked up, fragment) | little or no inhibition | inactive | – |
| β-hCG peptide 6-40: β-hCG peptide 6-40, forms part of the β-core (RPRCRPINATLAVEKEGCPVCITVNTTICAGYCPT; UniProt P0DN86 26-60, looked up, fragment) | – | slight activity | – |
| β-hCG peptide 7-40: β-hCG peptide of amino acids 7-40 (PRCRPINATLAVEKEGCPVCITVNTTICAGYCPT; UniProt P0DN86 27-60, looked up, fragment) | little or no inhibition | – | – |
| β-hCG peptide 34-49: β-hCG peptide of amino acids 34-49 (CAGYCPTMTRVLQGVL; UniProt P0DN86 54-69, looked up, fragment) | little or no inhibition | inactive | – |
| β-hCG peptide 38-57: β-hCG peptide of amino acids 38-57, overlaps satellin A1 (CPTMTRVLQGVLPALPQVVC; UniProt P0DN86 58-77, looked up, fragment) | little or no inhibition | slight activity | – |
| β-hCG peptide 55-90: β-hCG peptide 55-90, forms part of the β-core (VVCNYRDVRFESIRLPGCPRGVNPVVSYAVALSCQC; UniProt P0DN86 75-110, looked up, fragment) | – | slight activity | – |
| β-hCG peptide 57-93: β-hCG peptide of amino acids 57-93 (CNYRDVRFESIRLPGCPRGVNPVVSYAVALSCQCALC; UniProt P0DN86 77-113, looked up, fragment) | little or no inhibition | inactive | – |
| β-hCG peptide 74-95: β-hCG peptide of amino acids 74-95 (RGVNPVVSYAVALSCQCALCRR; UniProt P0DN86 94-115, looked up, fragment) | little or no inhibition | inactive | – |
| β-hCG peptide 93-100: β-hCG peptide of amino acids 93-100 (CRRSTTDC; UniProt P0DN86 113-120, looked up, fragment) | – | inactive | – |
| β-hCG peptide 100-110: β-hCG peptide of amino acids 100-110 (CGGPKDHPLTC; UniProt P0DN86 120-130, looked up, fragment) | little or no inhibition | inactive | – |
| β-hCG peptide 109-119: synthetic peptide of amino acid numbers 109-119 of the beta subunit of hCG (TCDDPRFQDSS) | – | – | anti-tumor (anti-KS) effects in clonogenic assays (KS Y-1 or KS-SLK cells; 50 nmoles/ml, 2 KS neoplastic cell lines, 10 days): strongest anti-tumor effects; activities of native hCG preparations (anti-KS, anti-viral, pro-hematopoietic) mimicked or retained (KS tumors and cells): mimicked; anti-KS effects (KS tumors and cells): have anti-KS effects; anti-viral effects (HIV): strongest anti-viral effects |
| B1 | – | – | anti-KS effect in clonogenic assays (KS Y-1 or KS-SLK cells; pure subunit chains): no anti-KS effect |
| B2 | – | – | anti-KS effects (KS tumors and cells): have anti-KS effects; anti-KS effects (KS tumors and cells; listed as native partially purified whole β-chain): considerable anti-KS activity |
| B3 | – | – | anti-KS effects (KS tumors and cells): little or no effect |
